Assay results taken from patent US8912173B2, “Substituted quinolines and their use as medicaments” (Boehringer Ingelheim International GmbH, priority 2011, dated 2014).

System: patients with ITP
Experiment: not given
Conditions: single center open label study; cited from earlier work

| Structure (SMILES) | platelet counts |
| --- | --- |
| COc1cc(Nc2ncc(F)c(Nc3ccc4c(n3)N(COP(=O)(O)O)C(=O)C(C)(C)O4)n2)cc(OC)c1OC [Example R788] | improved platelet counts |

Target: Recombinant human Syk (amino acids 342-635), GST-Syk kinase fusion protein (Homo sapiens (Human), UniProt P43405)
Experiment: Syk Kinase Test (Kinase Glo Luminescence Kinase test)
Conditions: read-out: IC50-value (+0.2% BSA in μM); +0.2% BSA
Protocol: The catalytic activity of the GST-Syk kinase fusion protein was determined using the Kinase Glo® Luminescence Kinase test (Promega; V6712). In this homogeneous test the amount of ATP remaining after the kinase reaction is quantified by a luciferin-luciferase reaction using luminescence. The luminescence signal obtained correlates with the amount of ATP still present and thus correlates inversely with the activity of the protein kinase.
GST-Syk was diluted to 6.0 nM in the test buffer and 10 μl of this dilution were used in the kinase test (final concentration of Syk=4 nM in a total volume of 15 μl).
Positive controls are the reaction mixtures that contain no test substance; negative controls (blanks) are reaction mixtures that contain no kinase.
After 60 minutes, 10 μl Kinase-Glo® solution (Promega, Cat. #V6712) (heated to room temperature) were added to each well and incubation was continued for a further 15 minutes. The plates were read in a Microplate Scintillation and Luminescence Counter (Canberra Packard GmbH).
Data Evaluation and Calculation:
The output file of the “Counter” is a text file that contains the well number and measured counts in two columns. […] Based on this values the % inherent value for the measurement of each substance concentration was calculated using an “MS-Excel-VB macro”. […] The IC50 values were calculated from the % inhibition values using “GraphPadPrism” software (Version 5) (GraphPad Software Inc.).

| IC50 [µM] | Structure (SMILES) |
| --- | --- |
| 0.0017 | C[C@@H](Oc1cc(-c2ccccn2)cc2ncccc12)[C@H]1CNC(=O)C1 [Example 6, (R)-4-((R)-1-(7-(pyridin-2-yl)quinolin-5-yloxy)ethyl)pyrrolidin-2-one] |

Same assay, conditions: read-out: IC50-value (+0.2% HSA in μM); +0.2% HSA

| Structure (SMILES) | IC50 [µM] |
| --- | --- |
| Cc1nc2ccc(-c3cc(O[C@H](C)[C@H]4CNC(=O)C4)c4cccnc4c3)cc2s1 [Example 85, (R)-4-((R)-1-(7-(2-methylbenzo[d]thiazol-6-yl)quinolin-5-yloxy)ethyl)pyrrolidin-2-one] | 0.0002 |
| C[C@@H](Oc1cc(-c2ccc3c(c2)ncn3C)cc2ncccc12)[C@H]1CNC(=O)C1 [Example 94, (R)-4-((R)-1-(7-(1-methyl-1H-benzo[d]imidazol-5-yl)quinolin-5-yloxy)ethyl)pyrrolidin-2-one] | 0.0003 |
| C[C@@H](Oc1cc(-c2ccc3c(c2)CNCC3)cc2ncccc12)[C@H]1CNC(=O)C1 [Example 101, (R)-4-((R)-1-(7-(1,2,3,4-tetrahydroisoquinolin-7-yl)quinolin-5-yloxy)ethyl)pyrrolidin-2-one] | 0.0004 |

Results, then the molecule that gave them:

| IC50 [µM] | Structure (SMILES) |
| --- | --- |
| 0.0045 | COc1cc(-c2cc(O[C@H](C)[C@H]3CNC(=O)C3)c3cccnc3c2)ccc1C(F)(F)F [Example 102, (R)-4-((R)-1-(7-(3-methoxy-4-(trifluoromethyl)phenyl)quinolin-5-yloxy)ethyl)pyrrolidin-2-one] |
| 0.0002 | Cc1nc2cc(-c3cc(O[C@H](C)[C@H]4CNC(=O)C4)c4cccnc4c3)ccc2n1C [Example 105, (R)-4-((R)-1-(7-(1,2-dimethyl-1H-benzo[d]imidazol-5-yl)quinolin-5-yloxy)ethyl)pyrrolidin-2-one] |
| 0.0004 | Cc1nc2cc(-c3cc(O[C@H](C)[C@H]4CNC(=O)C4)c4cccnc4c3)ccc2[nH]1 [Example 109, (R)-4-((R)-1-(7-(2-methyl-1H-benzo[d]imidazol-5-yl)quinolin-5-yloxy)ethyl)pyrrolidin-2-one] |
| 0.0012 | Cc1c(-c2cc(O[C@H](C)[C@H]3CNC(=O)C3)c3cccnc3c2)cnn1C [Example 112, (R)-4-((R)-1-(7-(1,5-dimethyl-1H-pyrazol-4-yl)quinolin-5-yloxy)ethyl)pyrrolidin-2-one] |
